Reference: ChEMBL document CHEMBL1136645, “The identification of clinical candidate SB-480848: a potent inhibitor of lipoprotein-associated phospholipase A2” (Bioorg Med Chem Lett, 2003)
pIC50: −log10 of the molar value.

Legend:
Cytochrome P450 3A4 = Cytochrome P450 3A4 (Homo sapiens, UniProt P08684); experiment: Inhibitory activity against CYP450 3A4 isozyme; format: ADME
Cytochrome P450 2D6 = Cytochrome P450 2D6 (Homo sapiens, UniProt P10635); experiment: Inhibitory activity against Cytochrome P450 2D6; format: ADME
Cytochrome P450 2D6, sequence (P10635 whole entry): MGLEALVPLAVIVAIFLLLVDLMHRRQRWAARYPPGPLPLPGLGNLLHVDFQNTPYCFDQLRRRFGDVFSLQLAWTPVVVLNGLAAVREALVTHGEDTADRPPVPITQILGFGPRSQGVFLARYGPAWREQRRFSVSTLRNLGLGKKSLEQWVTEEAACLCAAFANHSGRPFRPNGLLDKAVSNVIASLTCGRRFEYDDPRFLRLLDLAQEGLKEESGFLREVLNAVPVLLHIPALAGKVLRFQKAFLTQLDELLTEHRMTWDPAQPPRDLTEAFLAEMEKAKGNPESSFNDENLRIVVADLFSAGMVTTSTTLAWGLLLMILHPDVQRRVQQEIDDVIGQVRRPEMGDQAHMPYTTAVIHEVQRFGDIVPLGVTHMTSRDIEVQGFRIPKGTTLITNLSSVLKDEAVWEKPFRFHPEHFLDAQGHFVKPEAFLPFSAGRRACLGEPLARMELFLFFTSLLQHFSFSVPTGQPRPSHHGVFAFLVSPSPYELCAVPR

[1] = target: T1, Platelet-activating factor acetylhydrolase (Homo sapiens, UniProt Q13093); experiment: Inhibitory activity against recombinant human Lp-PLA2
T1 sequence (Q13093 whole entry): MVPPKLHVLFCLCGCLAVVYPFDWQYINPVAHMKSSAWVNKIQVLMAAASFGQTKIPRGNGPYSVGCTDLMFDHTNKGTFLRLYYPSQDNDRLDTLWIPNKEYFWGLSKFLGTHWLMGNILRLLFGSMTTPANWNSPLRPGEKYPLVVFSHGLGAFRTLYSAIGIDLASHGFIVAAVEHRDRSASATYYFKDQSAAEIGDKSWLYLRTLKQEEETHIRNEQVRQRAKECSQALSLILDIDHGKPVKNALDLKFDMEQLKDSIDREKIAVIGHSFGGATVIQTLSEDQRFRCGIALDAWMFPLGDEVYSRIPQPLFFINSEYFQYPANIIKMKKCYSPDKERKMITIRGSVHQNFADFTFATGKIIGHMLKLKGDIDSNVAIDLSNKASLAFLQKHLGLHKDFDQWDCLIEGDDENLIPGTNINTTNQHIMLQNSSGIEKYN

[2] = Permeability was determined; format: ADME; conditions: not told; read-out: Permeability (converted)
[3] = Permeability in plasma; format: ADME, cell-free; conditions: not told; read-out: Permeability (converted)
[4] = Oral bioavailability in fed rat; format: ADME, organism-based; conditions: in vivo
[5] = Oral bioavailability in dog; format: ADME, organism-based, Canis lupus familiaris; conditions: in vivo
Homo sapiens [6] = organism: Homo sapiens; experiment: Inhibitory concentration against lyso-PtdCho production in human LDL
Homo sapiens [7] = organism: Homo sapiens; experiment: Inhibitory concentration against monocyte chemotaxis
[8] = Oral bioavailability in fasted rat; format: ADME, organism-based; conditions: in vivo

Cytochrome P450 3A4, sequence (P08684 whole entry): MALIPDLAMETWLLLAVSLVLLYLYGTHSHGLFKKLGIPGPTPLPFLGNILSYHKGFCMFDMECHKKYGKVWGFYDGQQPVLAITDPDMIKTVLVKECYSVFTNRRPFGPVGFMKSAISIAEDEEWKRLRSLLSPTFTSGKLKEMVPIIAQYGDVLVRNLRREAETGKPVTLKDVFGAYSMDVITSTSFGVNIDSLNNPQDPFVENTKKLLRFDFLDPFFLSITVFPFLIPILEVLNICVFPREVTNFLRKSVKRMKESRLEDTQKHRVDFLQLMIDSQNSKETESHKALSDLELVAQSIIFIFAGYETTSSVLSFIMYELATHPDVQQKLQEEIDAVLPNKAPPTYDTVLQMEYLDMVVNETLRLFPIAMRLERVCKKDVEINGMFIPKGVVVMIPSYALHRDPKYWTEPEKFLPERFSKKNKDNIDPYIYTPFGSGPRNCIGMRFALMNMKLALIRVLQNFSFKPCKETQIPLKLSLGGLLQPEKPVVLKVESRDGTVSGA

SMILES	pIC50 (Cytochrome P450 3A4)	pIC50 (Cytochrome P450 2D6)	pIC50 [1]	Papp [2] [×10⁻⁶ cm/s]	Papp [3] [×10⁻⁶ cm/s]	also measured
CCN(CC)CCN(Cc1ccc(-c2ccc(C(F)(F)F)cc2)cc1)C(=O)Cn1cc(Br)c(=O)nc1SCc1ccc(F)cc1	4.41	4.25	9.00	25		
CCN(CC)CCN(Cc1ccc(-c2ccc(C(F)(F)F)cc2)cc1)C(=O)Cn1cc(CCNS(C)(=O)=O)c(=O)nc1SCc1ccc(F)cc1			9.00		1.39	
CCN(CC)CCN(Cc1ccc(-c2ccc(Cl)cc2)cc1)C(=O)Cn1cc(C)c(=O)nc1SCc1ccc(F)cc1	4.89	4.82		27.8		
CCN(CC)CCN(Cc1ccc(-c2ccc(C(F)(F)F)cc2)cc1)C(=O)Cn1c(SCc2ccc(F)cc2)nc(=O)c2c1CCCC2	5.00	5.05	10.00		16.7	
CCN(CC)CCN(Cc1ccc(-c2ccc(Cl)cc2)cc1)C(=O)Cn1c(SCc2ccc(F)cc2)nc(=O)c2c1CCCC2	5.30	5.22	9.60			
CCN(CC)CCN(Cc1ccc(-c2ccc(C(F)(F)F)cc2)cc1)C(=O)Cn1cc(CCO)c(=O)nc1SCc1ccc(F)cc1				0.833		
CCN(CC)CCN(Cc1ccc(-c2ccc(C(F)(F)F)cc2)cc1)C(=O)Cn1cc(C)c(=O)nc1SCc1ccc(F)cc1	4.77	4.41	9.00	22.2		
CCN(CC)CCN(Cc1ccc(-c2ccc(C(F)(F)F)cc2)cc1)C(=O)Cn1cc(SC)c(=O)nc1SCc1ccc(F)cc1	4.82	4.41	9.10	8.33		
CCc1cn(CC(=O)N(CCN(CC)CC)Cc2ccc(-c3ccc(C(F)(F)F)cc3)cc2)c(SCc2ccc(F)cc2)nc1=O	4.96	4.62	9.40	27.8		
CCN(CC)CCN(Cc1ccc(-c2ccc(C(F)(F)F)cc2)cc1)C(=O)Cn1cc(OC)c(=O)nc1SCc1ccc(F)cc1				6.94		
CCN(CC)CCN(Cc1ccc(-c2ccc(C(F)(F)F)cc2)cc1)C(=O)Cn1cc(CCN)c(=O)nc1SCc1ccc(F)cc1			7.42			
CCN(CC)CCN(Cc1ccc(-c2ccc(C(F)(F)F)cc2)cc1)C(=O)Cn1cc(CCNC(C)=O)c(=O)nc1SCc1ccc(F)cc1			8.22		0.833	
CCN(CC)CCN(Cc1ccc(-c2ccc(Cl)cc2)cc1)C(=O)Cn1c(SCc2ccc(F)cc2)nc(=O)c2c1CCC2	4.74	4.60	9.40		38.9	
CCN(CC)CCN(Cc1ccc(-c2ccc(C(F)(F)F)cc2)cc1)C(=O)Cn1c(SCc2ccc(F)cc2)nc(=O)c(C)c1C	4.66	4.62			8.33	
CCN(CC)CCN(Cc1ccc(-c2ccc(C(F)(F)F)cc2)cc1)C(=O)Cn1cc(Cl)c(=O)nc1SCc1ccc(F)cc1	4.54	4.08	8.52	30.6		
CCN(CC)CCN(Cc1ccc(-c2ccc(C(F)(F)F)cc2)cc1)C(=O)Cn1cc(Cc2cnn(C)c2)c(=O)nc1SCc1ccc(F)cc1						bioavailability [4]: 2%
CCN(CC)CCN(Cc1ccc(-c2ccc(C(F)(F)F)cc2)cc1)C(=O)Cn1cc(CO)c(=O)nc1SCc1ccc(F)cc1			8.82	0.556		
CCN(CC)CCN(Cc1ccc(-c2ccc(C(F)(F)F)cc2)cc1)C(=O)Cn1c(C)cc(=O)nc1SCc1ccc(F)cc1	4.66	4.33			13.9	
CCc1cn(CC(=O)N(CCN(CC)CC)Cc2ccc(-c3ccc(Cl)cc3)cc2)c(SCc2ccc(F)cc2)nc1=O	5.15	4.85		33.3		
CCCc1cn(CC(=O)N(CCN(CC)CC)Cc2ccc(-c3ccc(C(F)(F)F)cc3)cc2)c(SCc2ccc(F)cc2)nc1=O	5.30	4.66	9.10	36.1		
CCN(CC)CCN(Cc1ccc(-c2ccc(C(F)(F)F)cc2)cc1)C(=O)Cn1cc([S+](C)[O-])c(=O)nc1SCc1ccc(F)cc1 (stereo unspecified)			9.10	1.67		
CCN(CC)CCN(Cc1ccc(-c2ccc(C(F)(F)F)cc2)cc1)C(=O)Cn1c(SCc2ccc(F)cc2)nc(=O)c2c1CCC2 [DARAPLADIB]		4.59			27.8	bioavailability [5]: 28%; bioavailability [4]: 11%; pIC50 (Homo sapiens [6]): 5.40; pIC50 (Homo sapiens [7]): 5.40; bioavailability [8]: ~21%
